Experimental data published in US7138361B2, “Herbicidal heterocycles” (E. I. du Pont de Nemours and Company, priority 2000, dated 2006).

Assays:
Type in all cases: in vivo
Nightshade = test: Test C preemergence
From the text: (§1) Seeds of plant species selected from bermudagrass (Cynodon dactylon), Surinam grass (Brachiaria decumbens), cocklebur (Xanthium strumarium), corn (Zea mays), crabgrass (Digitaria sanguinalis), woolly cupgrass (Eriochloa villosa), giant foxtail (Setaria faberii), goosegrass (Eleusine indica), johnsongrass (Sorghum halepense), kochia (Kochia scoparia), lambsquarters (Chenopodium album), morningglory (Ipomoea hederacea), yellow nutsedge (Cyperus esculentus), pigweed (Amaranthus retroflexus), common ragweed (Ambrosia elatior), soybean (Glycine max) and velvetleaf (Abutilon theophrasti) were planted and treated preemergence with test chemicals formulated in a non-phytotoxic solvent mixture which included a surfactant.
(§2) At the same time, plants selected from these crop and weed species and also winter barley (Hordeum vulgare), blackgrass (Alopecurus myosuroides), canary grass (Phalaris minor), chickweed (Stellaria media), downy brome (Bromus tectorum), green foxtail (Setaria viridis), Italian ryegrass (Lolium multiflorum), wheat (Triticum aestivum), wild oat (Avena fatua) and windgrass (Apera spica-venti) were treated with postemergence applications of some of the test chemicals formulated in the same manner. Plants ranged in height from 2 to 18 cm (1- to 4-leaf stage) for postemergence treatments. Plant species in the flooded paddy test consisted of rice (Oryza saliva), smallflower flatsedge (Cyperus difformis), duck salad (Heteranthera limosa) and barnyardgrass (Echinochloa crus-galli) grown to the 2-leaf stage for testing. Treated plants and controls were maintained in a greenhouse for 12 to 14 days, after which time all species were compared to controls and visually evaluated. Plant response ratings, summarized in Table C, are based on a scale of 0 to 100 where 0 is no effect and 100 is complete control. A dash (-) response means no test result.

Sunflower = test: Test C preemergence; details: Rate 62 g/ha; scale 0 to 100, 0 no effect, 100 complete control
From the text: as §1, §2

[1] = system: Surinam grass (Brachiaria decumbens); test: Test C preemergence
From the text: as §1, §2

[2] = system: bermudagrass (Cynodon dactylon); test: Test C preemergence
From the text: as §1, §2

[3] = system: cocklebur (Xanthium strumarium); test: Test C preemergence; details: preemergence
From the text: as §1, §2

corn (Zea mays) = test: Test C preemergence
From the text: as §1, §2

[4] = system: crabgrass (Digitaria sanguinalis); test: Test C preemergence
From the text: as §1, §2

[5] = system: giant foxtail (Setaria faberii); test: Test C preemergence
From the text: as §1, §2

[6] = system: goosegrass (Eleusine indica); test: Test C preemergence
From the text: as §1, §2

[7] = system: johnsongrass (Sorghum halepense); test: Test C preemergence
From the text: as §1, §2

kochia (Kochia scoparia) = test: Test C preemergence
From the text: as §1, §2

[8] = system: lambsquarters (Chenopodium album); test: Test C preemergence
From the text: as §1, §2

[9] = system: morningglory (Ipomoea hederacea); test: Test C preemergence
From the text: as §1, §2

[10] = system: pigweed (Amaranthus retroflexus); test: Test C preemergence
From the text: as §1, §2

soybean (Glycine max) = test: Test C preemergence
From the text: as §1, §2

[11] = system: velvetleaf (Abutilon theophrasti); test: Test C preemergence
From the text: as §1, §2

[12] = system: woolly cupgrass (Eriochloa villosa); test: Test C preemergence
From the text: as §1, §2

[13] = system: yellow nutsedge (Cyperus esculentus); test: Test C preemergence
From the text: as §1, §2

[14] = system: barnyardgrass (Echinochloa crus-galli); test: Test C flooded paddy test; details: for Barnyardgrass plant response rating: Flooded Paddy, scale 0 to 100, 0 no effect, 100 complete control; for Plant response rating, Barnyardgrass: flooded paddy test, scale 0 to 100 (0 no effect, 100 complete control)
Outline: (§3)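 Plants were grown to the 2-leaf stage under flooded paddy conditions and treated. They were then kept in a greenhouse for 12 to 14 days and visually rated against untreated controls on a 0–100 scale, where 0 is no effect and 100 is complete control.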

[15] = system: duck salad (Heteranthera limosa); test: Test C flooded paddy test; details: for Ducksalad plant response rating: Flooded Paddy, scale 0 to 100, 0 no effect, 100 complete control; for Plant response rating, Ducksalad: flooded paddy test, scale 0 to 100 (0 no effect, 100 complete control)
Outline: as §3

[16] = system: smallflower flatsedge (Cyperus difformis); test: Test C flooded paddy test; details: for Flatsedge plant response rating: Flooded Paddy, scale 0 to 100, 0 no effect, 100 complete control; for Plant response rating, Flatsedge: flooded paddy test, scale 0 to 100 (0 no effect, 100 complete control)
Outline: as §3

[17] = Rate 62 g/ha, scale 0 to 100, 0 no effect, 100 complete control
[18] = Rate 125 g/ha, scale 0 to 100, 0 no effect, 100 complete control
[19] = preemergence, Rate 31 g/ha, scale 0 to 100
[20] = preemergence, Rate 250 g/ha, visual evaluation after 12 to 14 days
[21] = preemergence, Rate 125 g/ha, scale 0 to 100, 0 no effect, 100 complete control

In the case of `O=C1C(n2ccc(C3CC3)n2)OCN1c1cccc(C(F)(F)F)c1` (stereo not shown) [Compound 28], the “Plant response rating, Nightshade” value (Nightshade; Rate 31 g/ha, scale 0 to 100) is reported as 0, the “Plant response rating, Nightshade” value (Nightshade; [17]) is reported as 0 and the “Plant response rating, Nightshade” value (Nightshade; [18]) is reported as 70. For the same compound, the “Plant response rating, Sunflower” value (Sunflower) was 20, the “Plant response rating, Surinam grass” value [1, 17] was 20 and the “Plant response rating, Surinam grass” value [1, 19] was 20. The “Plant response rating (0 to 100), Surinam grass” value [1, 20] was 60, the “Plant response rating, Surinam grass” value [1, 21] was 60 and the “Plant response rating, Bermudagrass” value [2, 17] was 50. For the same compound, the “Plant response rating, Bermudagrass” value [2, 19] was 20, the “Plant response rating (0 to 100 where 0 is no effect and 100 is complete control), Bermudagrass” value [2, 20] was 100 and the “Plant response rating, Bermudagrass” value [2, 21] was 100. The “Plant response rating, Cocklebur” value ([3]; Rate 31 g/ha, scale 0 to 100) was 0, the “Plant response rating (0 to 100), Cocklebur” value ([3]; Rate 250 g/ha, visual evaluation after 12 to 14 days) was 0 and the “Plant response rating, Cocklebur” value [3, 18] was 0. For the same compound, the “Plant response rating, Corn” value (corn (Zea mays); [17]) was 0, the “Plant response rating, Corn” value (corn (Zea mays); [19]) was 0 and the “Plant response rating (0 to 100), Corn” value (corn (Zea mays); [20]) was 30. The “Plant response rating, Corn” value (corn (Zea mays); [21]) was 30, the “Plant response rating, Crabgrass” value [4, 17] was 90 and the “Plant response rating, Crabgrass” value [4, 19] was 90. For the same compound, the “Plant response rating (0 to 100), Crabgrass” value [4, 20] was 100, the “Plant response rating, Crabgrass” value [4, 21] was 100 and the “Plant response rating, Foxtail, Giant” value [5, 17] was 0. The “Plant response rating, Foxtail, Giant” value [5, 19] was 0, the “Plant response rating (0 to 100), Foxtail, Giant” value [5, 20] was 0 and the “Plant response rating, Foxtail, Giant” value [5, 21] was 100. The “Plant response rating, Goosegrass” value [6, 17] was 80, the “Plant response rating, Goosegrass” value [6, 19] was 40 and the “Plant response rating (0 to 100), Goosegrass” value [6, 20] was 100. For the same compound, the “Plant response rating, Goosegrass” value [6, 21] was 100, the “Plant response rating, Johnsongrass” value [7, 17] was 50 and the “Plant response rating, Johnsongrass” value [7, 19] was 0. For the same compound, the “Plant response rating (0 to 100), Johnsongrass” value [7, 20] was 70, the “Plant response rating, Johnsongrass” value [7, 21] was 70 and the “Plant response rating, Kochia” value (kochia (Kochia scoparia); [17]) was 40. For the same compound, the “Plant response rating, Kochia” value (kochia (Kochia scoparia); [19]) was 0, the “Plant response rating (0 to 100), Kochia” value (kochia (Kochia scoparia); [20]) was 100 and the “Plant response rating, Kochia” value (kochia (Kochia scoparia); [21]) was 100. For the same compound, the “Plant response rating, Lambsquarters” value [8, 17] was 100, the “Plant response rating, Lambsquarters” value [8, 19] was 100 and the “Plant response rating (0 to 100), Lambsquarters” value [8, 20] was 100. For the same compound, the “Plant response rating, Lambsquarters” value [8, 21] was 100, the “Plant response rating, Morningglory” value [9, 17] was 0 and the “Plant response rating, Morningglory” value [9, 19] was 0. For the same compound, the “Plant response rating (0 to 100), Morningglory” value [9, 20] was 0, the “Plant response rating, Morningglory” value [9, 21] was 0 and the “Plant response rating, Pigweed” value [10, 17] was 70. The “Plant response rating, Pigweed” value [10, 19] was 70, the “Plant response rating (0 to 100), Pigweed” value [10, 20] was 50 and the “Plant response rating, Pigweed” value [10, 21] was 100. The “Plant response rating, Soybean” value (soybean (Glycine max); [17]) was 0, the “Plant response rating, Soybean” value (soybean (Glycine max); [19]) was 0 and the “Plant response rating (0 to 100), Soybean” value (soybean (Glycine max); [20]) was 40. The “Plant response rating, Soybean” value (soybean (Glycine max); [21]) was 40, the “Plant response rating, Velvetleaf” value [11, 17] was 0 and the “Plant response rating, Velvetleaf” value [11, 19] was 0. For the same compound, the “Plant response rating (0 to 100), Velvetleaf” value [11, 20] was 0, the “Plant response rating, Velvetleaf” value [11, 21] was 0 and the “Plant response rating, Cupgrass, Woolly” value [12, 17] was 50. For the same compound, the “Plant response rating, Cupgrass, Woolly” value [12, 19] was 30, the “Plant response rating (0 to 100), Cupgrass, Woolly” value [12, 20] was 100 and the “Plant response rating, Cupgrass, Woolly” value [12, 21] was 70. The “Plant response rating, Nutsedge” value [13, 17] was 50, the “Plant response rating, Nutsedge” value [13, 19] was 50 and the “Plant response rating (0 to 100), Nutsedge” value [13, 20] was 50. For the same compound, the “Plant response rating, Nutsedge” value [13, 21] was 50, the “Barnyardgrass plant response rating” value ([14]; Rate 250 g/ha) was 40 and the “Barnyardgrass plant response rating” value ([14]; Rate 500 g/ha) was 70. For the same compound, the “Plant response rating, Barnyardgrass” value ([14]; Rate 62 g/ha) was 0, the “Plant response rating, Barnyardgrass” value ([14]; Rate 125 g/ha) was 0 and the “Ducksalad plant response rating” value ([15]; Rate 250 g/ha) was 70. For the same compound, the “Ducksalad plant response rating” value ([15]; Rate 500 g/ha) was 100, the “Plant response rating, Ducksalad” value ([15]; Rate 62 g/ha) was 0 and the “Plant response rating, Ducksalad” value ([15]; Rate 125 g/ha) was 0. The “Flatsedge plant response rating” value ([16]; Rate 250 g/ha) was 100, the “Flatsedge plant response rating” value ([16]; Rate 500 g/ha) was 100 and the “Plant response rating, Flatsedge” value ([16]; Rate 62 g/ha) was 80. The “Plant response rating, Flatsedge” value ([16]; Rate 125 g/ha) was 80.
